pIC50: −log10 of the molar value.
System: KRAS-mutant PDC multicell tumor spheroid viability
Assay: Anticancer human tumor 521955-158-R2-J5-PDC patient-derived pancreatic carcinoma cell line growth inhibition [KRAS2]
Details: for pIC50: curve of first compound; for viability, T/C: stronger effect = lower value
Outline: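 Combination screen of spheroid viability in tumor-cell co-cultures with endothelial (HUVEC) and mesenchymal stem cell stroma. Each agent was tested in half-log dilutions, topping at clinical Cmax or at 10 microM without a known Cmax.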

[1] = second compound 0.1 µM, first compound 0.01 µM
[2] = second compound 0.1 µM, first compound 0.0316 µM
[3] = second compound 0.1 µM, first compound 0.1 µM
[4] = second compound 0.1 µM, first compound 0.316 µM
[5] = second compound 0.1 µM, first compound 1 µM
[6] = second compound 0.1 µM, first compound 3.16 µM
[7] = second compound 0.316 µM, first compound 0.01 µM
[8] = second compound 0.316 µM, first compound 0.0316 µM
[9] = second compound 0.316 µM, first compound 0.1 µM
[10] = second compound 0.316 µM, first compound 0.316 µM
[11] = second compound 0.316 µM, first compound 1 µM
[12] = second compound 0.316 µM, first compound 3.16 µM
[13] = second compound 1 µM, first compound 0.01 µM
[14] = second compound 1 µM, first compound 0.0316 µM
[15] = second compound 1 µM, first compound 0.1 µM
[16] = second compound 1 µM, first compound 0.316 µM
[17] = second compound 1 µM, first compound 1 µM
[18] = second compound 1 µM, first compound 3.16 µM
[19] = second compound 3.16 µM, first compound 0.01 µM
[20] = second compound 3.16 µM, first compound 0.0316 µM
[21] = second compound 3.16 µM, first compound 0.1 µM
[22] = second compound 3.16 µM, first compound 0.316 µM
[23] = second compound 3.16 µM, first compound 1 µM
[24] = second compound 3.16 µM, first compound 3.16 µM
[25] = second compound 10 µM, first compound 0.01 µM
[26] = second compound 10 µM, first compound 0.0316 µM
[27] = second compound 10 µM, first compound 0.1 µM
[28] = second compound 10 µM, first compound 0.316 µM
[29] = second compound 10 µM, first compound 1 µM
[30] = second compound 10 µM, first compound 3.16 µM
[31] = second compound 0.1 µM, first compound 10 µM
[32] = second compound 0.316 µM, first compound 10 µM
[33] = second compound 1 µM, first compound 10 µM
[34] = second compound 3.16 µM, first compound 10 µM
[35] = second compound 10 µM, first compound 10 µM
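Note: viability read after seven days of drug exposure.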

Row | Structure (SMILES) | pIC50 (second compound 0.1 µM) | pIC50 (second compound 0.316 µM) | pIC50 (second compound 1 µM) | pIC50 (second compound 3.16 µM) | pIC50 (second compound 10 µM) | viability, T/C [2] [%] | viability, T/C [3] [%] | viability, T/C [4] [%] | viability, T/C [5] [%] | viability, T/C [6] [%] | viability, T/C [8] [%] | viability, T/C [9] [%] | viability, T/C [10] [%] | viability, T/C [11] [%] | viability, T/C [14] [%] | viability, T/C [15] [%] | viability, T/C [20] [%] | viability, T/C [21] [%] | viability, T/C [26] [%] | viability, T/C [27] [%] | also measured
1 | CC1COCCN1c1cc(-c2ccnn2C)c2ccnc(-c3ccn[nH]3)c2n1 (stereo not given) + CNCc1ccccc1-c1csc(C(C)Nc2nc(C)nc3cc(OC)c(OC)cc23)c1 | 7.52 | 7.62 | 7.66 | > 8.00 | > 8.00 | 48.3 | 11.4 | 13.6 | 20.8 | 29.5 | 35 | 12.4 | 11.7 | 20.7 | 25.3 | 8.4 | 0.11 | 0.07 | 0.15 | 0.13 | viability, T/C [1]: 101%; viability, T/C [7]: 95.9%; viability, T/C [12]: 25.9%; viability, T/C [13]: 105%; viability, T/C [16]: 11.7%; viability, T/C [17]: 21.2%; viability, T/C [18]: 22.9%; viability, T/C [19]: 0.3%; viability, T/C [22]: 0.06%; viability, T/C [23]: 0.08%; viability, T/C [24]: 0.33%; viability, T/C [25]: 0.14%; viability, T/C [28]: 0.13%; viability, T/C [29]: 0.12%; viability, T/C [30]: 0.22%
2 | CC1OCC2(CCN(c3cnc(Sc4ccnc(N)c4Cl)c(N)n3)CC2)C1N (stereo not given) + CNCc1ccccc1-c1csc(C(C)Nc2nc(C)nc3cc(OC)c(OC)cc23)c1 | < 5.00 | < 5.00 | < 5.00 | > 7.50 | > 7.50 | 86.5 | 83.1 | 85.6 | 74.4 | 67 | 90.2 | 85.2 | 68.5 | 77.3 | 90.6 | 83.5 | 0.27 | 0.18 | 0.15 | 0.14 | viability, T/C [31]: 70.7%; viability, T/C [12]: 75.4%; viability, T/C [32]: 73.1%; viability, T/C [16]: 76.8%; viability, T/C [17]: 70%; viability, T/C [18]: 68.4%; viability, T/C [33]: 75%; viability, T/C [22]: 0.19%; viability, T/C [23]: 0.2%; viability, T/C [24]: 0.36%; viability, T/C [34]: 0.31%; viability, T/C [28]: 0.15%; viability, T/C [29]: 0.13%; viability, T/C [30]: 0.14%; viability, T/C [35]: 0.21%
3 | Cn1nccc1Nc1nccc(-c2cc3c(s2)C(C)(C)N(CCN2CCOCC2)C3=O)n1 + CNCc1ccccc1-c1csc(C(C)Nc2nc(C)nc3cc(OC)c(OC)cc23)c1 | 5.98 | 6.11 | 6.04 | > 7.50 | > 7.50 | 99.7 | 84.2 | 60.7 | 54.2 | 36.5 | 98.3 | 81.4 | 60.9 | 49.6 | 103 | 100 | 0.21 | 0.22 | 0.11 | 0.15 | viability, T/C [31]: 18%; viability, T/C [12]: 29.4%; viability, T/C [32]: 18.3%; viability, T/C [16]: 71.9%; viability, T/C [17]: 47.7%; viability, T/C [18]: 22.3%; viability, T/C [33]: 0.54%; viability, T/C [22]: 0.19%; viability, T/C [23]: 0.51%; viability, T/C [24]: 0.08%; viability, T/C [34]: 0.36%; viability, T/C [28]: 0.14%; viability, T/C [29]: 0.14%; viability, T/C [30]: 0.19%; viability, T/C [35]: 0.2%
4 | CC(=O)OC12COC1CC(O)C1(C)C(=O)C(O)C3=C(C)C(OC(=O)C(O)C(NC(=O)OC(C)(C)C)c4ccccc4)CC(O)(C(OC(=O)c4ccccc4)C21)C3(C)C (stereo not given) + COc1cc2nc(C)nc(NC(C)c3cc(N)cc(C(F)(F)F)c3)c2cc1OC1CCOC1 | > 8.00 | > 8.00 | > 8.00 | > 8.00 | > 8.00 | 13.7 | 14.5 | 12.4 | 18.4 | 19 | 14.1 | 13.6 | 13.2 | 15.3 | 12.9 | 14 | 14.3 | 12.1 | 13.4 | 14.3 | viability, T/C [1]: 25%; viability, T/C [7]: 17.5%; viability, T/C [12]: 20.2%; viability, T/C [13]: 18.6%; viability, T/C [16]: 14.1%; viability, T/C [17]: 19.4%; viability, T/C [18]: 26.4%; viability, T/C [19]: 14%; viability, T/C [22]: 12.5%; viability, T/C [23]: 17.1%; viability, T/C [24]: 19.6%; viability, T/C [25]: 18.1%; viability, T/C [28]: 14.1%; viability, T/C [29]: 14.3%; viability, T/C [30]: 18.9%
5 | CN(C)C/C=C/C(=O)Nc1cc2c(Nc3ccc(F)c(Cl)c3)ncnc2cc1O[C@H]1CCOC1 + COc1cc2nc(C)nc(NC(C)c3cc(N)cc(C(F)(F)F)c3)c2cc1OC1CCOC1 | < 7.00 | < 7.00 | < 7.00 | < 7.00 | < 7.00 | 86.8 | 85 | – | – | – | 80.4 | 61.1 | – | – | 84.3 | 77.2 | 77.8 | 71.8 | 91.8 | 72.7 | viability, T/C (second compound 0.1 µM, first compound 0.000316 µM): 91.4%; viability, T/C (second compound 0.1 µM, first compound 0.001 µM): 93.2%; viability, T/C (second compound 0.1 µM, first compound 0.00316 µM): 74.3%; viability, T/C [1]: 79.6%; viability, T/C (second compound 0.316 µM, first compound 0.000316 µM): 78.4%; viability, T/C (second compound 0.316 µM, first compound 0.001 µM): 84.8%; viability, T/C (second compound 0.316 µM, first compound 0.00316 µM): 63.5%; viability, T/C [7]: 74.5%; viability, T/C (second compound 1 µM, first compound 0.000316 µM): 79.8%; viability, T/C (second compound 1 µM, first compound 0.001 µM): 99.6%; viability, T/C (second compound 1 µM, first compound 0.00316 µM): 82.6%; viability, T/C [13]: 69.8%; viability, T/C (second compound 3.16 µM, first compound 0.000316 µM): 91.5%; viability, T/C (second compound 3.16 µM, first compound 0.001 µM): 93.9%; viability, T/C (second compound 3.16 µM, first compound 0.00316 µM): 88.5%; viability, T/C [19]: 71.2%; viability, T/C (second compound 10 µM, first compound 0.000316 µM): 90.2%; viability, T/C (second compound 10 µM, first compound 0.001 µM): 82.8%; viability, T/C (second compound 10 µM, first compound 0.00316 µM): 86%; viability, T/C [25]: 85.4%
6 | O=C(c1cc(Cc2n[nH]c(=O)c3ccccc23)ccc1F)N1CCN(C(=O)C2CC2)CC1 + COc1cc2nc(C)nc(NC(C)c3cc(N)cc(C(F)(F)F)c3)c2cc1OC1CCOC1 | < 5.00 | < 5.00 | < 5.00 | < 5.00 | < 5.00 | 92.5 | 71.2 | 83.6 | 88.9 | 75.5 | 81.2 | 66.3 | 70.2 | 73 | 107 | 102 | 108 | 96.6 | 107 | 119 | viability, T/C [31]: 74.5%; viability, T/C [12]: 79.6%; viability, T/C [32]: 58.2%; viability, T/C [16]: 94.6%; viability, T/C [17]: 96.3%; viability, T/C [18]: 92.3%; viability, T/C [33]: 64.6%; viability, T/C [22]: 97.5%; viability, T/C [23]: 83.9%; viability, T/C [24]: 81.1%; viability, T/C [34]: 51.5%; viability, T/C [28]: 112%; viability, T/C [29]: 96.8%; viability, T/C [30]: 86.8%; viability, T/C [35]: 65.2%
